Source: US8198033B2, “Methods and materials for observing apoptosis” (Genentech, Inc., priority 2006, dated 2012)
Where a SMILES comes first, the peptide text is derived from it. The star is where a group is joined. Cbz = O=C(OCc1ccccc1)*; CH2F = FC*

Tests used:
Assay type in all cases: cell-based, human
[1] = tested on: BJAB or Colo205 cells; experiment: Immunoblot for cleavage of clathrin-pathway components after DNA-damaging agents
Description: BJAB or Colo205 cells were treated with vinblastine, or adriamycin for the indicated time and analyzed by immunoblot as in FIG. 1.
Human colorectal adenocarcinoma Colo205 cells human B cell lymphoma BJAB cells and human T cell carcinoma Jurkat wild type cells (A3 clone), FADD-deficient (E1) and caspase-8-deficient (I9.3) were cultured in RPMI 1640+10% fetal bovine serum (FBS)+2 mM glutamine+1000 U/ml Penicillin-Streptomycin (Life Technologies). Human cervical carcinoma HeLa-M cells human breast adenocarcinoma MCF7 and human colorectal adenocarcinomas HCT15, HCT8, SW948, Colo320, human fibrosarcoma HT180 (ATCC), HCT116 Bax(−/−), HCT116 Bax(+/−) were grown in 50:50 Dulbecco's modified Eagle's and FK12 medium+10% FBS+1000 U/ml Penicillin-Streptomycin. cDNA clones encoding temperature-sensitive dynamins were the G273D mutant and dominant negative K44A mutant dynamin-1 (Dyn^G273D and Dyn^K44A, respectively). Dyn^G273D was expressed from pHUSH-ProEx, a single retroviral plasmid tetracycline-inducible expression system constructed at Genentech. […]

[2] = tested on: AP2α, AP1/2β, clathrin heavy chain (CHC), dynamin; experiment: Immunoblot for cleavage of clathrin-dependent endocytosis machinery and caspases in cell lysates
Description: (b) Colo205 cells were treated as in (a) and analyzed by immunoblot for processing of specific components of various types of clathrin-associated endocytic trafficking.
Open arrows indicate cleavage products and solid arrows indicate full-length proteins.
(c) BJAB cells were treated with crosslinked Apo2L/TRAIL and processing of dynamin was determined by immunoblot.
The cells were analyzed by immunoblot for processing of caspase-8, caspase-9, caspase-3, and AP2α.
Human colorectal adenocarcinoma Colo205 cells human B cell lymphoma BJAB cells and human T cell carcinoma Jurkat wild type cells (A3 clone), FADD-deficient (E1) and caspase-8-deficient (I9.3) were cultured in RPMI 1640+10% fetal bovine serum (FBS)+2 mM glutamine+1000 U/ml Penicillin-Streptomycin (Life Technologies). Human cervical carcinoma HeLa-M cells human breast adenocarcinoma MCF7 and human colorectal adenocarcinomas HCT15, HCT8, SW948, Colo320, human fibrosarcoma HT180 (ATCC), HCT116 Bax(−/−), HCT116 Bax(+/−) were grown in 50:50 Dulbecco's modified Eagle's and FK12 medium+10% FBS+1000 U/ml Penicillin-Streptomycin. cDNA clones encoding temperature-sensitive dynamins were the G273D mutant and dominant negative K44A mutant dynamin-1 (Dyn^G273D and Dyn^K44A, respectively). Dyn^G273D was expressed from pHUSH-ProEx, a single retroviral plasmid tetracycline-inducible expression system constructed at Genentech. The cDNA was first cloned into a shuttle plasmid containing a CMV enhancer-promoter sequence with two copies of the tetracycline operator TetO2, then transferred via in vitro phage lamda-based recombination, or Gateway® technology (Invitrogen, Carlsbad), to a Moloney murine leukemia virus backbone vector in which the wild type Tet repressor is driven by a separate β-actin promoter and followed by an internal ribosomal entry sequence and puromycin selection cassette. Dyn^K44A was expressed from the 2-vector tetracycline-inducible retroviral expression system, pRevTet-On/pRev-Tre (Clontech), using serial infections. Retroviral vectors were transfected into Phoenix amphotropic Moloney Murine Leukemia Virus packaging cells using Lipofectamine 2000 […]. Retroviral particles were harvested and used in HeLa-M and BJAB cell infections as described previously (Simpson et al. J Cell Biol 137, 835-45, 1997). Dyn^G273 infected cells were puromycin selected (2-3 μg/ml) for 1-2 weeks and cloned either by manually picking individual HeLa-M colonies or by FACS sorting of resistant BJAB cells (gated for exclusion of propidium iodide) and single cell seeding in 96-well cell culture plates using an EPICS ELITE-ESP equipped with an Autoclone device (Coulter, Hialeah, Fla.). Cell clones were screened for uniformity of doxycycline inducible dynamin-1 expression by immunofluorescence microscopy. Dyn^K44A-infected cells were hygromycin B (400 μg/ml) and G418 (1 mg/ml) selected for 1-2 weeks. Induction with doxycycline (1 μg/ml) was performed at 32° C. for 72 hr as described previously (Damke et al. J Cell Biol 131, 69-80 1995). Vincristine sulfate (#T-117), Adriamycin.HCL (GR-319) were purchased from Biomol, tetracycline-free FBS from Hyclone, Puromycin from Clontech and Doxycyclin from Sigma. zVAD-fmk (asN-benzyloxycarbonyl-Val-Ala-Asp-fluoromethylketone) was obtained from MD Biosciences (#FK-009). […]

[3] = tested on: BJAB and Colo205 cells; experiment: Transferrin (Tf) endocytosis rate by flow cytometry; settings: BJAB cells, zVAD-fmk 30 min then 4 hr crosslinked Apo2L/TRAIL
Description: The cells were then equilibrated on ice for 30 min with Alexa-647-conjugated Tf (^647TF) and uptake at 37° C. was measured by flow cytometry. Each endocytosis rate was derived from the slope of the initial linear phase of a 4 min uptake kinetics plot (a, inset). […] Rates were normalized to the DMSO treated sample (±SEM).
Sedimented cells were resuspended in cold 2% paraformaldehyde/PBS and mean fluorescence intensity of 10,000 cells quantified with a Coulter Epics Elite-ESP flow cytometer (Hialeah, Fla.). Endocytic rates were determined from linear slopes of steady-state internal/surface plots (see, e.g., Wiley, H. S. et. al, J Biol Chem 257, 4222-9 (1982)). For temperature-shift experiments, ice binding incubations were avoided. Instead, cells were preconditioned for 20 min and maintained at 30° C. or 38° C. in binding medium, incubated an additional 0 (control) or 20 min with ^647Tf, chilled on ice for 30 min, and processed for flow cytometry to determine internal/surface ^647Tf ratios.

[4] = tested on: DISC; experiment: DISC immunoprecipitation; settings: BJAB cells chilled on ice
Description: (a) BJAB cells were equilibrated with ^647Tf on ice, incubated for the indicated uptake interval at 37° C. or on ice, then fluorescence quantified by flow cytometry. […] DISC-associated FADD and caspase-8 were visualized by immunoblot. (c, d) Dyn^G273D-transduced BJAB cells were treated with buffer (No Dox) or doxycyline (Dox) and shifted to 38° C. for 20 min to inactivate dynamin. The cells were treated with crosslinked Apo2L/TRAIL for the indicated amounts of time and the DISC was immunoprecipitated. DISC-associated FADD and caspase-8 were visualized by immunoblot (c) or DISC-associated caspase-8 activity was measured as described previously (Sharp et al. J Biol Chem 280, 19401-409, 2005).
BJAB cells (1×10^7 per time point) were treated with Flag-Apo2L/TRAIL cross-linked by anti-FLAG M2 Abs, collected, lysed, immunoprecipitated and the DISC was analyzed as described (see, e.g., Kischkel, F. C. et al., Immunity 12, 611-20 (2000)).

For `COc1cccc2c1C(=O)c1c(O)c3c(c(O)c1C2=O)C[C@@](O)(C(=O)CO)C[C@@H]3O[C@H]1C[C@H](N)[C@H](O)[C@H](C)O1` [adriamycin], the “Cleavage of components of the clathrin machinery” value [1] was “induced cleavage of components of the clathrin machinery, albeit with much slower kinetics than DR ligands”.

`CC[C@]1(O)C[C@@H]2CN(CCc3c([nH]c4ccccc34)[C@@](C(=O)OC)(c3cc4c(cc3OC)N(C)[C@H]3[C@@](O)(C(=O)OC)[C@H](OC(C)=O)[C@]5(CC)C=CCN6CC[C@]43[C@@H]65)C2)C1` [vinblastine] was tested, and the “Cleavage of components of the clathrin machinery” value [1] was “induced cleavage of components of the clathrin machinery, albeit with much slower kinetics than DR ligands”.

With `CC(C)[C@H](NC(=O)OCc1ccccc1)C(=O)N[C@@H](C)C(=O)N[C@@H](CC(=O)O)C(=O)CF` [zVAD-fmk, N-benzyloxycarbonyl-Val-Ala-Asp-fluoromethylketone, reference compound] (Cbz-Val-Ala-Asp-CH2F) the “Effect of pretreatment on ligand-induced cleavage of AP2α and CHC” value ([2]; BJAB cells, zVAD-fmk 20 μM 30 min then crosslinked Apo2L/TRAIL 1 μg/mL) was “prevented cleavage of AP2α and CHC” and the “Effect of pretreatment on Apo2L/TRAIL inhibition of Tf endocytosis” value [3] was “substantially reversed this inhibition”.

B1: FasL: Flag-tagged FasL, crosslinked; SEQ ID NO: 9 (protein, listed as Homo sapiens)
chain: MQQPFNYPYPQIYWVDSSASSPWAPPGTVLPCPTSVPRRPGQRRPPPPPPPPPLPPPPPPPPLPPLPLPPLKKRGNHSTGLCLLVMFFMVLVALVGLGLGMFQLFHLQKELAELRESTSQMHTASSLEKQIGHPSPPPEKKELRKVAHLTGKSNSRSMPLEWEDTYGIVLLSGVKYKKGGLVINETGLYFVYSKVYFRGQSCNNLPLSHKVYMRNSKYPQDLVMMEGKMMSYCTTGQMWARSSYLGAVFNLTSADHLYVNVSELSLVNFEESQTFFGLYKL
modifications: Flag tag, crosslinked
With B1 the “Cleavage of AP2α and CHC” value ([2]; BJAB cells, crosslinked ligand) was “stimulated cleavage of AP2α and CHC in BJAB cells comparably to Apo2L/TRAIL”, the “Processing of AP2α and CHC” value ([2]; caspase-8-deficient or FADD-deficient mutant Jurkat cell lines) was “neither ligand stimulated processing of these targets” and the “Cleavage of AP2α and CHC” value ([2]; wt Jurkat T cells) was “induced cleavage of AP2α and CHC”. For the same molecule, the “DISC assembly with Tf endocytosis blocked” value [4] was “still recruited FADD and caspase-8 to their respective receptors and processed caspase-8”.
